Measured values: paper PMC7129073 (Clinical Microbiology and Infection, 2015)
Converted amounts (≈) assume the structure as drawn. Where two headings read alike, the source gives them in different places.

Legend:
[1] = tested on: H. influenzae; assay: Disk diffusion, sputum isolates Athens 2001–2004; type: cell-based, Haemophilus influenzae
[2] = tested on: E. coli; assay: Disk diffusion, urine isolates of BPH patients; settings: strains isolated after operative intervention
[3] = tested on: S. pneumoniae; assay: MIC of invasive strains, Saint George Hospital 2001–2004; type: cell-based, Streptococcus pneumoniae
[4] = tested on: Nocardia spp.; assay: E-test on Mueller Hinton agar, 81 clinical isolates; type: cell-based
[5] = tested on: glycopeptide intermediate Staphylococcus species (GISS); assay: VITEK II, screening plate and E test, blood isolates; type: cell-based, coagulase-negative Staphylococci
[6] = tested on: viridans group streptococci (VGS); assay: MIC; type: cell-based
[7] = tested on: methicillin resistant Staphylococcus aureus; assay: NCCLS agar dilution MIC; type: cell-based; settings: n = 53
[8] = tested on: methicillin susceptible Staphylococcus aureus; assay: NCCLS agar dilution MIC; type: cell-based; settings: n = 41
[9] = tested on: enterococci; assay: Disk diffusion and E-test, faecal isolates of cancer patients; type: cell-based, Enterococcus; settings: 38 strains
[10] = tested on: CA-MRSA; assay: MIC, MBC; type: cell-based, Staphylococcus aureus; settings: time kill, two strains
[11] = tested on: MDR-MRSA; assay: MIC, MBC; type: cell-based, Staphylococcus aureus; settings: time kill, two strains
[12] = tested on: group A beta-haemolytic streptococcal (GABHS) pharyngitis; assay: Phase III trial, GABHS pharyngitis/tonsillitis; type: in vivo, human
[13] = tested on: Klebsiella; assay: SMART 2003 Europe, microdilution; type: cell-based, Klebsiella spp.; settings: 341 isolates
[14] = tested on: Salmonella serotype Typhimurium; assay: Disk diffusion, food isolates Spain; type: cell-based; settings: n = 53
[15] = tested on: Pseudomonas aeruginosa; assay: MIC, strains from cystic fibrosis patients; settings: by MIC
[16] = tested on: E. coli; assay: SMART 2003 Europe, microdilution; type: cell-based, Escherichia coli; settings: 1106 isolates
[17] = tested on: Salmonella, other 49 serotypes; assay: Disk diffusion, food isolates Spain; type: cell-based; settings: n = 115
[18] = tested on: inducible Enterobacteriaceae; assay: SMART 2003, intraabdominal isolates; type: cell-based
[19] = tested on: Nocardia spp.; assay: Time-kill at peak-serum concentrations, seven strains; type: cell-based; settings: of seven strains; 24, 72 h
[20] = tested on: Escherichia coli; assay: Vitek 2 susceptibility, urine isolates of children; type: cell-based
[21] = tested on: Salmonella serotype Enteritidis; assay: Disk diffusion, food isolates Spain; type: cell-based; settings: n = 96
[22] = tested on: K. pneumoniae; assay: MIC; type: cell-based, Klebsiella pneumoniae; settings: Klebsiella pneumoniae
[23] = tested on: Enterobacteriaceae; assay: SMART 2003 Europe, microdilution; type: cell-based; settings: 1948 isolates
[24] = tested on: Acinetobacter; assay: Disk diffusion; type: cell-based; settings: 37 isolates selected as resistant to beta-lactams
[25] = tested on: S. pneumoniae; assay: Broth microdilution; type: cell-based, Streptococcus pneumoniae; settings: 275 isolates
[26] = tested on: H. influenzae; assay: Broth microdilution; type: cell-based, Haemophilus influenzae; settings: 267 isolates
[27] = tested on: biofilms of S. aureus (SA204 and SA195) and S. epidermidis (ATCC35983 and ATCC35984); assay: Antibiotic lock, in vitro biofilm on polyurethane film, viable counts; type: cell-based, Staphylococcus species; settings: any of the time intervals examined
[28] = tested on: Escherichia coli O157:H7; assay: Kirby-Bauer susceptibility; type: cell-based; settings: 30 strains, 1990–2003
[29] = tested on: Escherichia coli

Molecule: amoxicillin/clavulanate
- resistance rate ([1]; 2001–2002): 0%
- resistance rate ([1]; 2003–2004): 4.6%
- resistance [2]: 93.1%
- % S [3]: 100%
- %R [3]: 0%
- MIC50 [4]: 2 µg/mL
- MIC90 [4]: 8 µg/mL

Molecule: teicoplanin
- MIC of resistant strains ([5]; 26 strains): 32 to 256 µg/mL
- MIC of intermediate sensitive strains ([5]; 47 strains): 16 µg/mL
- tolerant isolates ([6]; 83 isolates, tolerance to VA and TP): 77.6%
- MIC50 ([6]; 107 strains, 1990–2003): 0.06 µg/mL
- MIC90 ([6]; 107 strains, 1990–2003): 0.12 µg/mL
- susceptibility of all isolates ([6]; NCCLS): All isolates were susceptible
- MIC50 [7]: 1 µg/mL
- MIC90 [7]: 2 µg/mL
- MIC range [7]: 0.5 to 8 µg/mL
- MIC50 [8]: 1 µg/mL
- MIC90 [8]: 1 µg/mL
- MIC range [8]: 0.25 to 2 µg/mL
- sensitivity of all isolated strains [9]: All the isolated strains were sensitive
- Δ Log10 CFU/ml [10]: −1.86 Log10 CFU/ml
- Δ Log10 CFU/ml [11]: −3.82 Log10 CFU/ml

Molecule: CC[C@H]1OC(=O)[C@H](C)[C@@H](O[C@H]2C[C@@](C)(OC)[C@@H](O)[C@H](C)O2)[C@H](C)[C@@H](O[C@@H]2O[C@H](C)C[C@H](N(C)C)[C@H]2O)[C@](C)(O)C[C@@H](C)CN(C)[C@H](C)[C@@H](O)[C@]1(C)O [3-day azithromycin, azithromycin]
- bacteriologic eradication at TOC (Day 24–28) ([12]; BPP population, single 2.0 g dose vs 500 mg QD for 3 days): 81.4%
- clinical cure ([12]; TOC): 96.7%
- bacteriologic recurrence at long-term follow up (Day 38–45) ([12]; in vivo): 7.7%
- diarrhoea/loose stools ([12]; most frequent adverse event): 11%

Molecule: NCC[C@H](O)C(=O)N[C@@H]1C[C@H](N)[C@@H](O[C@H]2O[C@H](CN)[C@@H](O)[C@H](O)[C@H]2O)[C@H](O)[C@H]1O[C@H]1O[C@H](CO)[C@@H](O)[C@H](N)[C@H]1O [amikacin]
- per cent susceptible [13]: 98%
- resistance rate (NCCLS M100-S13) [14]: 0%
- Susceptible isolates [15]: 100%
- per cent susceptible [16]: 99%
- resistance rate (NCCLS M100-S13) [17]: 0%
- % susceptible ([18]; A/P (N = 200)): 91%
- % susceptible ([18]; EU (N = 354)): 99%
- % susceptible ([18]; NA (N = 163)): 99%
- strains with bactericidal activity (≥3 log10 cfu/ml decrease) [19]: 7 strains
- susceptibility rate ([20]; paediatric surgical unit (PSU)): 62%
- susceptibility rate ([20]; paediatric units (PU)): 99%
- resistance rate (NCCLS M100-S13) [21]: 1%
- MIC50 ([4]; Nocardia): 0.38 µg/mL (≈ 0.649 µM)
- MIC90 ([4]; Nocardia): 1 µg/mL (≈ 1.71 µM)
- MIC range ([4]; read after 48 and 72 h): 0.016 to 2 µg/mL
- MIC [22]: 4 µg/mL (≈ 6.83 µM)
- per cent susceptible [23]: 99%
- resistant isolates [24]: 62.1%

Molecule: CC=CC1=C(C(=O)O)N2C(=O)[C@@H](NC(=O)[C@H](N)c3ccc(O)cc3)[C@H]2SC1 [cefprozil]
- Susceptibility [25]: 87.3%
- susceptible [26]: 93.3%

Molecule: CCOc1ccc2ccccc2c1C(=O)N[C@@H]1C(=O)N2[C@@H]1SC(C)(C)[C@@H]2C(=O)O [nafcillin]
- significant biofilm killing [27]: not achieved

Molecule: N[C@@H](C(=O)N[C@@H]1C(=O)N2C(C(=O)O)=C(Cl)CS[C@H]12)c1ccccc1 [cefaclor]
- Susceptibility [25]: 82.5%
- susceptible [26]: 92.1%

Molecule: NC[C@H]1O[C@H](O[C@H]2[C@H](O)[C@@H](O[C@H]3O[C@H](CO)[C@@H](O)[C@H](N)[C@H]3O)[C@H](N)C[C@@H]2N)[C@H](O)[C@@H](O)[C@@H]1O [kanamycin]
- resistant strains [28]: 3.3%

Molecule: COc1cc(Cc2cnc(N)nc2N)cc(OC)c1OC [trimethoprim]
- resistance ([29]; 1993, E.coli resistant to ampicillin): 28%
- resistance ([29]; 1993, E.coli sensitive to ampicillin): 3%
- resistance ([29]; 2003, E.coli resistant to ampicillin): 43%
- resistance ([29]; 2003, E.coli sensitive to ampicillin): 4%
